The assay has as its target T1, 5-HT transporter (h) (Homo sapiens, UniProt P31645).
T1 construct: Eurofins Cerep
The assay is described as follows: SafetyScreen44 panel: 5-HT transporter. Format: binding. The source says: As previously described.(31)
Table S2. ADME properties and in vitro assessment of toxicity/off-target effects for DDD489 and […]
Data are from a single biological replicate. (A) In vitro ADME properties. FaSSIF is Fasted State Simulated Intestinal Fluid Solubility. MDCK-MDR1 is a Madin-Darby canine kidney cell line transfected with the MDR1 gene, encoding for the efflux protein, P-glycoprotein (P-gp). Papp is apparent permeability, measured in the presence of P-gp inhibitor, GF120918. Efflux ratio is calculated as the ratio of Papp B-A/A-B. CHIlogD is chromatographic hydrophobicity index logD, measured at pH 7.4. clogP is calculated logP, determined by […]
Heps Cli is liver hepatocyte intrinsic clearance,
PPB is plasma protein binding.
Data quoted is percent bound. M=mouse, r=rat, d=dog, b=bovine, h=human. (B) In vitro toxicity assays. Cyp450
IC50 is cytochrome p450 enzyme inhibition. Mini-Ames was conducted in the presence and absence of S9 mix in four strains of Salmonella typhimurium. hERG IC50 is human ether-a-go-go related gene inhibition, measured using manual patch-clamp technique. (C) Mitochondrial toxicity assay data. (D) In a safety p anel of receptors and […]

The structures appear in SMILES notation.

T1 sequence (P31645 whole entry): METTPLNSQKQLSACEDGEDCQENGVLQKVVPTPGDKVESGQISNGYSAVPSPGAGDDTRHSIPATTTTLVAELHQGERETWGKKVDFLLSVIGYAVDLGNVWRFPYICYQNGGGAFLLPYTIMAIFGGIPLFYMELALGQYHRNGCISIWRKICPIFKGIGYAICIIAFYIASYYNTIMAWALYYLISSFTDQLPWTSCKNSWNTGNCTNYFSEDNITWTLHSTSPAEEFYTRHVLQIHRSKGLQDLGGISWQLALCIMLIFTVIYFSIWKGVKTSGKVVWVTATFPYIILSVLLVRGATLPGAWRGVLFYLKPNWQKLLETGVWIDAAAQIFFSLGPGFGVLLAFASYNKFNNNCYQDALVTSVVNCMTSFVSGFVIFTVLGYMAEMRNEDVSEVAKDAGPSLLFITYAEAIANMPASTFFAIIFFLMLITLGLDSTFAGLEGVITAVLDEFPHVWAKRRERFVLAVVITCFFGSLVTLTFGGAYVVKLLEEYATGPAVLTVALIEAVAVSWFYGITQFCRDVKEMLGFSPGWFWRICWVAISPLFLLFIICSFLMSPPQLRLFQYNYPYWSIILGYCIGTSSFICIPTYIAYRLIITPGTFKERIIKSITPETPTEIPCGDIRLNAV

On to `Nc1nc2c(c(C(F)(F)F)n1)C(=O)N(CC1CCCC(C(F)(F)F)C1)C2` (stereo not shown) [DDD489], for which at 10 µM the inhibition was 62%.
